# Marks after values point to notes of the source that are not given here.
# Biological target: human recombinant IL-17A (Homo sapiens (Human), UniProt Q16552)
# Assay: IL-17A AlphaLISA Assay (competition: block binding of IL-17A to its receptor IL-17RA)
# Conditions: compounds pre-incubated with IL-17A for 30 min (indicated by *)
# Method: The ability of the compounds to block binding of IL-17A to its receptor, IL-17RA, was analysed in a competition assay using AlphaLISA technology (Perkin Elmer). The assay is a bead based AlphaLISA where the IL-17RA is captured on the acceptor bead via an Fc tag and IL-17A is captured on the streptavidin donor bead via a biotinylated anti-IL-17A antibody.
# Assay buffer was prepared by adding 0.05% Tween-20 (v/v) and 0.1% BSA to Phosphate Buffered Saline (PBS). The assay was carried out in 384-well white low volume plates (Corning 4512). 10 μL of a 7.5 nM stock of human recombinant IL-17A (R&D Systems 7955-IL/CF) diluted in assay buffer was dispensed into the assay plate and compounds or DMSO vehicle control were added in a volume of 75 nL using a D300 dispenser (Hewlett Packard). The compounds were pre-incubated with the IL-17A for 24 h at room temperature (or for 30 min, where indicated by * in Table A below) prior to addition of 5 μL of a 5 nM stock of human recombinant IL-17RA/Fc chimera (R&D Systems 177-IR-100) diluted in assay buffer. The IL-17A was incubated with the receptor for a further 90 minutes at room temperature before addition of 5 μL of a mixture of anti-human Fc IgG acceptor beads (75 μg/mL, Perkin Elmer AL103C) and anti-IL-17A biotin conjugated antibody (5 nM, Enzo Life Sciences, ENZ-ABS278-0100) in assay buffer. After a further 30 min incubation at room temperature, 5 μL of streptavidin donor beads (75 μg/mL, Perkin Elmer 6760002S) were added and the plate was incubated for 3 h in the dark.
# The luminescence signal was measured using an Enspire plate reader (Perkin Elmer) with excitation at 680 nm and emission at 615 nm. Data were analysed using GraphPad Prism and fitted to a 4-parameter logistic equation. The IC50 values were calculated using the DMSO vehicle as the negative control and a high concentration (6 μM) of a reference IL-17A inhibitor as the positive control.
# Activity of the Example compounds is reported as a pIC50 value in Table A.
# human recombinant IL-17A, sequence (Q16552 24-155): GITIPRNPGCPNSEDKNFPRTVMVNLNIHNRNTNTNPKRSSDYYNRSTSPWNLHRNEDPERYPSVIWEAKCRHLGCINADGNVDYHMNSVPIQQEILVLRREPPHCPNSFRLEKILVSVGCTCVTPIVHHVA
row,AlphaLISA pIC50,SMILES
1,6.1*,"Cc1cnn(C)c1-c1ccc(NC(=O)[C@@H](NC(=O)c2ccnn2C)C2CCCC2)nc1 [Example 102, (S)-N-(1-cyclopentyl-2-((5-(1,4-dimethyl-1H-pyrazol-5-yl)pyridin-2-yl)amino)-2-oxoethyl)-1-methyl-1H-pyrazole-5-carboxamide]"
2,6.8*,"CCn1nccc1C(=O)N[C@H](C(=O)Nc1cnc(-c2c(C)cnn2C)c(F)c1)[C@H]1CC[C@H](C)CC1 [Example 108, N-((S)-2-((6-(1,4-dimethyl-1H-pyrazol-5-yl)-5-fluoropyridin-3-yl)amino)-1-((1 r,4S)-4-methylcyclohexyl)-2-oxoethyl)-1-ethyl-1H-pyrazole-5-carboxamide]"
3,6.8*,"Cc1nnn(C)c1-c1ccc(NC(=O)[C@@H](NC(=O)c2ccnn2C)[C@H]2CC[C@H](C)CC2)nc1 [Example 44, N-((S)-2-((5-(1,4-Dimethyl-1H-1,2,3-triazol-5-yl)pyridin-2-yl)amino)-1-((1r,4S)-4-methylcyclohexyl)-2-oxoethyl)-1-methyl-1H-pyrazole-5-carboxamide]"
4,6.3*,"Cc1cnn(C)c1-c1ncc(NC(=O)[C@@H](NC(=O)c2ccnn2C)[C@H]2CC[C@H](C)CC2)cc1F [Example 98, N-((S)-2-((6-(1,4-dimethyl-1H-pyrazol-5-yl)-5-fluoropyridin-3-yl)amino)-1-((1 r,4S)-4-methylcyclohexyl)-2-oxoethyl)-1-methyl-1H-pyrazole-5-carboxamide]"

# Second part, the molecule before the results:
row,SMILES,AlphaLISA pIC50
1,"COc1c(-c2ccc(NC(=O)[C@@H](NC(=O)c3ccnn3C)[C@H]3CC[C@H](C)CC3)nc2)ccnc1C [Example 70, N-((S)-2-((3′-methoxy-2′-methyl-[3,4′-bipyridin]-6-yl)amino)-1-((1r,4S)-4-methylcyclohexyl)-2-oxoethyl)-1-methyl-1H-pyrazole-5-carboxamide]",6.1*
2,"CCn1nccc1C(=O)N[C@H](C(=O)Nc1ccc(-c2c(C)c[n+]([O-])cc2C)cn1)[C@H]1CC[C@H](C)CC1 [Example 58, 6-((S)-2-(1-Ethyl-1H-pyrazole-5-carboxamido)-2-((1 r,4S)-4-methylcyclohexyl)acetamido)-3′,5′-dimethyl-[3,4′-bipyridine]1′-oxide]",6.9*
3,"Cc1nsc(C)c1-c1ccc(NC(=O)[C@@H](NC(=O)c2cnnn2C)[C@H]2CC[C@H](C)CC2)nc1 [Example 116, N-((S)-2-((5-(3,5-dimethylisothiazol-4-yl)pyridin-2-yl)amino)-1-((1r,4S)-4-methylcyclohexyl)-2-oxoethyl)-1-methyl-1H-1,2,3-triazole-5-carboxamide]",6.0*
4,"Cc1c(-c2ccc(NC(=O)[C@@H](NC(=O)c3ccnn3C)C3CCC(C)(C)CC3)cc2)ccc(=O)n1C [Example 21, (S)-N-(2-((4-(1,2-Dimethyl-6-oxo-1,6-dihydropyridin-3-yl)phenyl)amino)-1-(4,4-dimethylcyclohexyl)-2-oxoethyl)-1-methyl-1H-pyrazole-5-carboxamide]",6.0*
5,"Cc1c(-c2ccc(NC(=O)[C@@H](NC(=O)c3ccnn3C)C3CCC(F)(F)CC3)cc2)ccc(=O)n1C [Example 20, (S)-N-(1-(4,4-Difluorocyclohexyl)-2-((4-(1,2-dimethyl-6-oxo-1,6-dihydropyridin-3-yl)phenyl)amino)-2-oxoethyl)-1-methyl-1H-pyrazole-5-carboxamide]",6.0*

# Same assay, conditions: compounds pre-incubated with IL-17A for 24 h at room temperature
row,AlphaLISA pIC50,SMILES
1,6.0,"Cc1c(-c2ccc(NC(=O)[C@@H](NC(=O)c3ccnn3C)[C@H]3CC[C@H](C)CC3)nc2)ccc(=O)n1C [Example 8, N-((S)-2-((1′,2′-Dimethyl-6′-oxo-1′,6′-dihydro-[3,3′-bipyridin]-6-yl)amino)-1-((1 r,4S)-4-methylcyclohexyl)-2-oxoethyl)-1-methyl-1H-pyrazole-5-carboxamide]"
